Assay results as given in patent US9868746B2, “Substituted 5-aminothieno[2,3-C]pyridazine-6-carboxamide analogs as positive allosteric modulators of the muscarinic acetylcholine receptor M4” (Vanderbilt University, priority 2012, dated 2018).
Where two headings read alike, the source gives them in different places.

Molecular target: T1, mAChR M4 (Homo sapiens, UniProt P08173)
T1 construct: expressed in transfected cells; host or cells: CHO-K1 cells stably transfected with M4 cDNA and chimeric G-protein Gqi5
T1 sequence (P08173 1-479): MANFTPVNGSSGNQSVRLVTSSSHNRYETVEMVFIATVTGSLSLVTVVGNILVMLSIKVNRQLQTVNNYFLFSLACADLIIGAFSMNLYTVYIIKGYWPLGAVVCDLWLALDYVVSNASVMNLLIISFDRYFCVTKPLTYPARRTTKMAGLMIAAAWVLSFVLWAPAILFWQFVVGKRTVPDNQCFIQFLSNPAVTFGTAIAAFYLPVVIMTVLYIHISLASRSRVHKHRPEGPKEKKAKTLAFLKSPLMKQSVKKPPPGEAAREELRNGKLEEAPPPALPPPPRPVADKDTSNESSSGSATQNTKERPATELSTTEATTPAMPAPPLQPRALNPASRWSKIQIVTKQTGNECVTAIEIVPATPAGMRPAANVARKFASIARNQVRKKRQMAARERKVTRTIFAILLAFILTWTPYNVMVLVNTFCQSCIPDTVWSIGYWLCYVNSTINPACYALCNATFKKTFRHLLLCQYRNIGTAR
Experiment: mAChR M4 cell-based functional assay (calcium mobilization, potentiation of EC20 acetylcholine response)
Conditions: for Emax at 30 µM: % ACh maximum at 30 μM

[1] = mAChR M4 cell-based functional assay, >10,000 estimated for low potency compounds without plateau, read-out: EC50

Structure (SMILES)	Emax at 30 µM	EC50 [1]	EC50 (EC50 (nM))
Cc1nnc2sc(C(=O)N3CCC(NS(C)(=O)=O)C3)c(N)c2c1C (stereo not shown) [Example B256]	65%	> 10000 nM	–
Cc1nnc2sc(C(=O)NC3CN(C(=O)Oc4ccc(N=[N+]=[N-])cc4)C3)c(N)c2c1C [Example B421]	84%	15 nM	–
Cc1nnc2sc(C(=O)N3CCC(NC(=O)Oc4ccccc4)C3)c(N)c2c1C (stereo not shown) [Example B205]	71%	570 nM	–
Cc1nnc2sc(C(=O)NCc3ccc(-c4ccsc4)cc3)c(N)c2c1C [Example B502]	66%	580 nM	–
COc1cncc(NC(=O)c2sc3nnc(C)c(C)c3c2N)c1 [Example B72]	30%	380 nM	–
Cc1nnc2sc(C(=O)NCc3ccc(S(=O)(=O)C(F)F)c(F)c3)c(N)c2c1C [Example B468]	85%	16 nM	–
Cc1nnc2sc(C(=O)NCc3ccc(S(=O)(=O)CF)cc3)c(N)c2c1C [Example B132]	66%	19 nM	–
Cc1nnc2sc(C(=O)NCc3ccnc(C#N)c3)c(N)c2c1C [Example B467]	69%	1200 nM	–
COc1ncc(CNC(=O)c2sc3nnc(C)c(C)c3c2N)cn1 [Example B399]	62%	290 nM	–
COc1ccc(C(=O)N2CC(NC(=O)c3sc4nnc(C)c(C)c4c3N)C2)c(OC)c1 [Example B161]	61%	200 nM	–
Cc1nnc2sc(C(=O)NC3CCN(S(=O)(=O)c4ccccc4)C3)c(N)c2c1C (stereo not shown) [Example B229]	68%	550 nM	–
COc1cccc(C2(OC)CN(C(=O)c3sc4nnc(C)c(C)c4c3N)C2)c1 [Example B310]	39%	1900 nM	–
Cc1nnc2sc(C(=O)N3Cc4ccccc4C3)c(N)c2c1C [Example B280]	46%	1700 nM	–
Cc1nnc2sc(C(=O)NC3CCN(C(=O)C4CCC4)C3)c(N)c2c1C (stereo not shown) [Example B239]	84%	1200 nM	–
COC1(c2ccc(Cl)cc2)CN(C(=O)c2sc3nnc(C)c(C)c3c2N)C1 [Example B314]	49%	2800 nM	–
Cc1nnc2sc(C(=O)NC3CN(C(=O)Nc4ccccc4F)C3)c(N)c2c1C [Example B338]	62%	44 nM	–
Cc1nnc2sc(C(=O)NCC(C)(C)O)c(N)c2c1C [Example B25]	56%	> 10000 nM	–
Cc1nnc2sc(C(=O)NCCN(C)C(=O)C3CC3)c(N)c2c1C [Example B343]	33%	> 10000 nM	–
Cc1nnc2sc(C(=O)NC3CN(C(=O)Oc4cccc(N=[N+]=[N-])c4)C3)c(N)c2c1C [Example B424]	68%	7.9 nM	–
Cc1nnc2sc(C(=O)NCc3ccc(-c4cncnc4)cc3)c(N)c2c1C [Example B462]	65%	38 nM	–
Cc1nnc2sc(C(=O)NCc3ccc(S(=O)(=O)C(F)F)cc3)c(N)c2c1C [Example B117]	66%	–	18 nM
Cc1nnc2sc(C(=O)NCc3ccccn3)c(N)c2c1C [Example B13]	58%	1000 nM	–
Cc1nnc2sc(C(=O)NCc3ccc(-c4ccc5occc5c4)cc3)c(N)c2c1C [Example B463]	70%	150 nM	–
Cc1nnc2sc(C(=O)NCc3ccncc3)c(N)c2c1C [Example B14]	100%	320 nM	–
Cc1nnc2sc(C(=O)NC3CN(C(=O)Oc4cccc(Cl)c4)C3)c(N)c2c1C [Example B359]	55%	16 nM	–

Structure (SMILES)	Emax at 30 µM	EC50 [1]	EC50 (EC50 (nM))
Cc1nnc2sc(C(=O)NC3CN(C(=O)OCc4ccccc4)C3)c(N)c2c1C [Example B124]	58%	22 nM	–
Cc1nnc2sc(C(=O)NC3CN(C(=O)c4cccc(Cl)c4)C3)c(N)c2c1C [Example B392]	60%	74 nM	–
Cc1nnc2sc(C(=O)NC3CN(S(=O)(=O)c4ccc5ncccc5c4)C3)c(N)c2c1C [Example B141]	92%	85 nM	–
Cc1nnc2sc(C(=O)N3CCC(NC(=O)C4CC4)C3)c(N)c2c1C (stereo not shown) [Example B236]	66%	5000 nM	–
Cc1nnc2sc(C(=O)N3CC(NCc4ccco4)C3)c(N)c2c1C [Example B64]	41%	> 10000 nM	–
Cc1nnc2sc(C(=O)N3CCC(NS(=O)(=O)c4ccc(F)cc4)C3)c(N)c2c1C (stereo not shown) [Example B223]	61%	2400 nM	–
Cc1nnc2sc(C(=O)NC3CN(S(=O)(=O)c4ccc(F)cc4F)C3)c(N)c2c1C [Example B146]	82%	66 nM	–
Cc1nnc2sc(C(=O)N[C@@H]3CCN(c4ccccc4)C3)c(N)c2c1C [Example B192]	51%	1800 nM	–
Cc1nnc2sc(C(=O)NC3CC3)c(N)c2c1C [Example B8]	97%	260 nM	–
Cc1nnc2sc(C(=O)NCc3ccc(CN4CCSCC4)cc3)c(N)c2c1C [Example B493]	68%	82 nM	–
Cc1nnc2sc(C(=O)N3CC(Br)(c4ccccc4)C3)c(N)c2c1C [Example B191]	45%	2100 nM	–
Cc1nnc2sc(C(=O)NCCNS(C)(=O)=O)c(N)c2c1C [Example B352]	51%	> 10000 nM	–
Cc1nnc2sc(C(=O)N3CCC(NS(=O)(=O)c4ccccc4)C3)c(N)c2c1C (stereo not shown) [Example B207]	64%	1300 nM	–
COc1ncc(CNC(=O)c2sc3nnc(C)c(C)c3c2N)cc1F [Example B439]	78%	25 nM	–
COc1ncccc1-c1ccc(CNC(=O)c2sc3nnc(C)c(C)c3c2N)cc1 [Example B456]	68%	99 nM	–
CCCCC1(F)CN(C(=O)c2sc3nnc(C)c(C)c3c2N)C1 [Example B307]	55%	180 nM	–
Cc1nnc2sc(C(=O)N3CCCC(c4ccccc4)C3)c(N)c2c1C (stereo not shown) [Example B107]	52%	1700 nM	–
Cc1nnc2sc(C(=O)N3CC4CN(c5cccc(Br)n5)CC4C3)c(N)c2c1C (stereo not shown) [Example B437]	54%	98 nM	–
Cc1nnc2sc(C(=O)NCc3ccc(-c4cc(O)ccc4Cl)cc3)c(N)c2c1C [Example B500]	72%	1800 nM	–
CCOC(=O)N1CC2CN(C(=O)c3sc4nnc(C)c(C)c4c3N)CC2C1 (stereo not shown) [Example B285]	73%	2500 nM	–
Cc1nnc2sc(C(=O)N3CC(F)(c4cccc(-c5cnn(C)c5)c4)C3)c(N)c2c1C [Example B325]	62%	590 nM	–
Cc1nnc2sc(C(=O)NC3CCN(C(=O)c4ccc(F)cc4F)C3)c(N)c2c1C (stereo not shown) [Example B228]	81%	350 nM	–
Cc1nnc2sc(C(=O)NC3CC3c3ccc(S(C)(=O)=O)cc3)c(N)c2c1C (stereo not shown) [Example B109]	78%	120 nM	–
Cc1nnc2sc(C(=O)N3CC(F)(c4cccc(-c5cccnc5)c4)C3)c(N)c2c1C [Example B321]	48%	290 nM	–
Cc1nnc2sc(C(=O)NCc3ccc(-c4cccnc4F)cc3)c(N)c2c1C [Example B454]	66%	19 nM	–
